Assay: Rate of dissolution in H2O at 25° C.
Format: physicochemical

| Structure (SMILES) | Rate of dissolution compared to the polymorphic forms (Forms 1, 2, or 3) | Rate of dissolution in H2O at 25° C. (grade in words) | Rate of dissolution in H2O at 25° C. (amount dissolved) (in 5 minutes) | Rate of dissolution in H2O at 25° C. (amount dissolved) (in 60 minutes) |
| --- | --- | --- | --- | --- |
| C=C1C[C@@]23CC[C@H]4[C@@](C)(CCC[C@@]4(C)C(=O)O[C@@H]4O[C@H](CO)[C@@H](O)[C@H](O)[C@H]4O)[C@@H]2CC[C@]1(O[C@@H]1O[C@H](CO)[C@@H](O)[C@H](O[C@@H]2O[C@H](CO)[C@@H](O)[C@H](O)[C@H]2O)[C@H]1O[C@@H]1O[C@H](CO)[C@@H](O)[C@H](O)[C@H]1O)C3 [Form 4, rebaudioside A] | improved rate of dissolution | High | (>35% in 5 |  |
| C=C1C[C@@]23CC[C@H]4[C@@](C)(CCC[C@@]4(C)C(=O)O[C@@H]4O[C@H](CO)[C@@H](O)[C@H](O)[C@H]4O)[C@@H]2CC[C@]1(O[C@@H]1O[C@H](CO)[C@@H](O)[C@H](O[C@@H]2O[C@H](CO)[C@@H](O)[C@H](O)[C@H]2O)[C@H]1O[C@@H]1O[C@H](CO)[C@@H](O)[C@H](O)[C@H]1O)C3 [Form 2, rebaudioside A] |  | Intermediate | (<30% in 5 |  |
| C=C1C[C@@]23CC[C@H]4[C@@](C)(CCC[C@@]4(C)C(=O)O[C@@H]4O[C@H](CO)[C@@H](O)[C@H](O)[C@H]4O)[C@@H]2CC[C@]1(O[C@@H]1O[C@H](CO)[C@@H](O)[C@H](O[C@@H]2O[C@H](CO)[C@@H](O)[C@H](O)[C@H]2O)[C@H]1O[C@@H]1O[C@H](CO)[C@@H](O)[C@H](O)[C@H]1O)C3 [Form 3, rebaudioside A] |  | High | (>30% in 5 |  |
| C=C1C[C@@]23CC[C@H]4[C@@](C)(CCC[C@@]4(C)C(=O)O[C@@H]4O[C@H](CO)[C@@H](O)[C@H](O)[C@H]4O)[C@@H]2CC[C@]1(O[C@@H]1O[C@H](CO)[C@@H](O)[C@H](O[C@@H]2O[C@H](CO)[C@@H](O)[C@H](O)[C@H]2O)[C@H]1O[C@@H]1O[C@H](CO)[C@@H](O)[C@H](O)[C@H]1O)C3 [Form 1, rebaudioside A] |  | Very low |  | (<0.2% in 60 |

Source: US9012626B2, “Rebaudioside a composition and method for purifying rebaudioside a” (The Coca-Cola Company, priority 2006, dated 2015)
